Experimental data as given in patent publication US11053221B2, “Substituted pyrimidines for inhibiting embryonic leucine zipper kinase activity” (Arrien Pharmaceuticals LLC, priority 2018, dated 2021).
Where a name gives a salt, the structure may show the parent alone.

Legend:
MELK = target: T1, MELK (Homo sapiens, UniProt Q14680); assay: HotSpot kinase assay, MELK; format: biochemical; conditions: HotSpot radiometric 33P ATP assay, 25° C., 120 min
T1 construct: purchased Reaction Biology Corporation
T1 sequence (Q14680 whole entry): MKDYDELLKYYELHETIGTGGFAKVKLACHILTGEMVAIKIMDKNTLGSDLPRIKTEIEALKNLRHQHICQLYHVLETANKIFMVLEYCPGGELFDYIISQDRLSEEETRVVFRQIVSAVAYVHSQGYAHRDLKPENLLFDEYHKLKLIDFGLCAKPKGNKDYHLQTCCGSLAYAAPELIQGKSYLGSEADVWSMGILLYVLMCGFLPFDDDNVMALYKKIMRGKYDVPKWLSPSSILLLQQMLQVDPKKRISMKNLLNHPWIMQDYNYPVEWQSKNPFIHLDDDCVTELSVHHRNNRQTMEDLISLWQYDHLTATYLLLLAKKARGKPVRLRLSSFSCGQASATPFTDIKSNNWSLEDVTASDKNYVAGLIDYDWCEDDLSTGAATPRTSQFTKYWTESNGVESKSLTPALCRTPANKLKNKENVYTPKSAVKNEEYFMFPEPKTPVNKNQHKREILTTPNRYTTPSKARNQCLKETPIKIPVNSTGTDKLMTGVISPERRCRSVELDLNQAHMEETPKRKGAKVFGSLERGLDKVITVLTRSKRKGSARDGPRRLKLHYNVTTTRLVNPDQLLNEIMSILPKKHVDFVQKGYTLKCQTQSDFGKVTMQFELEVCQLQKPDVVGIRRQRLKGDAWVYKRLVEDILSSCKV
Experimental: (§1) In vitro profiling of the MELK, MELK (T460M) kinase panel was performed at Reaction Biology Corporation using the “HotSpot” assay platform. In vitro profiling of the FLT3, FLT3 mutant forms; FLT3 (D835Y), FLT3 (F594R595insR), FLT3 (F594R595insREY), FLT3 (ITD), FLT3 (ITD)-NPOS, FLT3 (ITD)-W51 and FLT3 (R595_E596insEY) kinase panel is performed in the same manner.
(§2) Briefly, specific kinase/substrate pairs along with required cofactors were prepared in reaction buffer; 20 mM Hepes (pH 7.5), 10 mM MgCl2, 1 mM EGTA, 0.02% Brij35, 0.02 mg/mL BSA, 0.1 mM Na3VO4, 2 mM DTT, 1% DMSO. Compounds were delivered into the reaction, followed ˜20 min later by addition of a mixture of ATP (Sigma) and ^33P ATP (PerkinElmer) to a final concentration of […]. Reactions were carried out at 25° C. for 120 min, followed by spotting of the reactions onto P81 ion exchange filter paper (Whatman). Unbound phosphate was removed by extensive washing of filters in 0.75% phosphoric acid. […] IC50 values and curve fits were obtained using Prism (GraphPad Software).

FLT3 = target: T2, FLT3 (Homo sapiens, UniProt P36888); assay: HotSpot kinase assay, FLT3; format: biochemical; conditions: HotSpot radiometric 33P ATP assay, 25° C., 120 min
T2 construct: purchased Reaction Biology Corporation
T2 sequence (P36888 27-993): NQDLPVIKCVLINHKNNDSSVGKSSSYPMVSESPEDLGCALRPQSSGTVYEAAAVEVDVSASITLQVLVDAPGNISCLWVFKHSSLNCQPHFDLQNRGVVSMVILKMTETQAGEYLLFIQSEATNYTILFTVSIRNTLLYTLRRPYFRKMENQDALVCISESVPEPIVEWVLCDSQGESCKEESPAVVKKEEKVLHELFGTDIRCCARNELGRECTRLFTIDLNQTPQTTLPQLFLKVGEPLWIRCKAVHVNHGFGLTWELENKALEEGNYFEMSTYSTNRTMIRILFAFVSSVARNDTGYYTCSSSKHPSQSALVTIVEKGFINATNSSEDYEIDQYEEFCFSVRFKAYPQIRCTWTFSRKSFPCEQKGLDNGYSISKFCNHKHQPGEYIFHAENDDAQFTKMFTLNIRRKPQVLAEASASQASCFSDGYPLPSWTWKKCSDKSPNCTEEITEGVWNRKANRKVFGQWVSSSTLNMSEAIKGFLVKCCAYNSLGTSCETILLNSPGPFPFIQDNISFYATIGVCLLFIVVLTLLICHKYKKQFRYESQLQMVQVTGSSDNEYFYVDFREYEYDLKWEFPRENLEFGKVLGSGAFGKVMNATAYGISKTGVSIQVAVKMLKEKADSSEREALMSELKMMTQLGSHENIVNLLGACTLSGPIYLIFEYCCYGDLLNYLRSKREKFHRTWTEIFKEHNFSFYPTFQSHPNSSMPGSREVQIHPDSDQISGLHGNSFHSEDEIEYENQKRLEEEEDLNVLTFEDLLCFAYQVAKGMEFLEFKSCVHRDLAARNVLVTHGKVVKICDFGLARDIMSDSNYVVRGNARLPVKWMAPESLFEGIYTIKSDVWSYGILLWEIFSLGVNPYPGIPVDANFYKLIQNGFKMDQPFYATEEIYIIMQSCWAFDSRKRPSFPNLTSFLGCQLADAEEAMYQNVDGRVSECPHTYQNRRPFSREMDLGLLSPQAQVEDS
Experimental: as §1, §2

| Structure (SMILES) | IC50 (MELK) | IC50 (FLT3) |
| --- | --- | --- |
| Fc1cccc(F)c1-n1cc(-c2ncncc2OCC2CCNCC2)cn1 [Compound I-30, 4-(1-(2,6-difluorophenyl)-1H-pyrazol-4-yl)-5-(piperidin-4-ylmethoxy)pyrim-idine] | 200 to 1000 nM | 200 to 1000 nM |
| Fc1cccc(F)c1-n1cc(-c2ncnc(Cl)c2OCC2CCNCC2)cn1 [Compound I-29, 4-chloro-6-(1-(2,6-difluorophenyl)-1H-pyrazol-4-yl)-5-(piperidin-4-ylmethoxy)pyrim-idine] | > 1000 nM | 200 to 1000 nM |
| COc1ccccc1-n1cc(-c2ncncc2OC[C@H]2CC[C@@H](N)CC2)cn1 [Compound I-5, (1s,4s)-4-(((4-(1-(2-methoxyphenyl)-1H-pyrazol-4-yl)pyrimidin-5-yl)oxy)methyl)cyclo-hexan-1-amine] | < 200 nM | < 200 nM |
| N[C@H]1CC[C@@H](CCOc2cncnc2-c2cnn(-c3ccccc3F)c2)CC1 [Compound I-19, (1s,4s)-4-(2-((4-(1-(2-fluorophenyl)-1H-pyrazol-4-yl)pyrimidin-5-yl)oxy)ethyl)cyclo-hexan-1-amine] | < 200 nM | < 200 nM |
| N#Cc1ccccc1-n1cc(-c2ncncc2OC[C@H]2CC[C@@H](N)CC2)cn1 [Compound I-4, 2-(4-(5-(((1s,4s)-4-aminocyclohexyl)meth-oxy)pyrimidin-4-yl)-1H-pyrazol-1-yl)benzonitrile] | 200 to 1000 nM | < 200 nM |
| N[C@H]1CC[C@@H](CNc2cncnc2-c2cnn(-c3c(F)cccc3F)c2)CC1 [Compound I-12, N-(((1s, 4s)-4-aminocyclohexyl)methyl)-4-(1-(2,6-difluorophenyl)-1H-pyrazol-4-yl)-pyrimidin-5-amine trifluoroacetate] | > 1000 nM | 200 to 1000 nM |
| c1ccc(-n2cc(-c3ncncc3OCC3CCNCC3)cn2)cc1 [Compound I-28, 4-(1-phenyl-1H-pyrazol-4-yl)-5-(piperidin-4-ylmethoxy)pyrim-idine] | 200 to 1000 nM | 200 to 1000 nM |
| CN(C)[C@H]1CC[C@@H](COc2cncnc2-c2cnn(-c3ccccc3F)c2)CC1 [Compound I-9, (1s,4s)-4-(((4-(1-(2-fluorophenyl)-1H-pyrazol-4-yl)pyrimidin-5-yl)oxy)methyl)-N,N-dimethylcyclohexan-1-amine] | 200 to 1000 nM | < 200 nM |
| CN(C)C[C@@H]1CC[C@H](COc2cncnc2-c2cnn(-c3ccccc3F)c2)C1 [Compound I-8, 1-((1R,3S)-3-(((4-(1-(2-fluorophenyl)-1H-pyrazol-4-yl)pyrimidin-5-yl)oxy)methyl)cyclo-pentyl)-N,N-dimethylmethanamine] | < 200 nM | < 200 nM |
| NC1CCN(c2cncnc2-c2cnn(-c3ccccc3F)c2)CC1 [Compound I-10, 1-(4-(1-(2-fluorophenyl)-1H-pyrazol-4-yl)pyrimidin-5-yl)piperidin-4-amine] | > 1000 nM | 200 to 1000 nM |
| Fc1ccccc1-n1cc(-c2ncncc2OCC2CCNCC2)cn1 [Compound I-23, 4-(1-(2-fluorophenyl)-1H-pyrazol-4-yl)-5-(piperidin-4-ylmethoxy)pyrim-idine] | < 200 nM | < 200 nM |
| Cc1cccc(F)c1-n1cc(-c2ncncc2OC[C@H]2CCC[C@@H](N)C2)cn1 [Compound I-18, (1R,3S)-3-(((4-(1-(2-fluoro-6-methylphenyl)-1H-pyrazol-4-yl)pyrimidin-5-yl)oxy)methyl)cyclo-hexan-1-amine] | > 1000 nM | 200 to 1000 nM |
| CCS(=O)(=O)c1ccc(-n2cc(-c3ncncc3OC[C@H]3CC[C@@H](N)CC3)cn2)cc1 [Compound I-34, (1s,4s)-4-(((4-(1-(4-(ethylsulfonyl)phenyl)-1H-pyrazol-4-yl)pyrimidin-5-yl)oxy)methyl)cyclo-hexan-1-amine] | 200 to 1000 nM | < 200 nM |
| N[C@H]1CC[C@@H](COc2cncnc2-c2cnn(-c3ccccc3C(F)(F)F)c2)CC1 [Compound I-2, (1s,4s)-4-(((4-(1-(2-(trifluoromethyl)phen-yl)-1H-pyrazol-4-yl)pyrimidin-5-yl)oxy)methyl)cyclo-hexan-1-amine] | > 1000 nM | 200 to 1000 nM |
| COc1ccc(-n2cc(-c3ncncc3OC[C@H]3CC[C@@H](N)CC3)cn2)cc1F [Compound I-22, (1s,4s)-4-(((4-(1-(3-fluoro-4-methoxyphenyl)-1H-pyrazol-4-yl)pyrimidin-5-yl)oxy)methyl)cyclo-hexan-1-amine] | < 200 nM | < 200 nM |
| CN1CCN(c2ccc(-n3cc(-c4ncncc4OC[C@H]4CC[C@@H](N)CC4)cn3)cc2)CC1 [Compound I-32, (1s,4s)-4-(((4-(1-(4-(4-methylpiperazin-1-yl)phenyl)-1H-pyrazol-4-yl)pyrimidin-5-yl)oxy)methyl)cyclo-hexan-1-amine] | < 200 nM | < 200 nM |
| OC1CCC(COc2cncnc2-c2cnn(-c3ccccc3F)c2)CC1 (stereo not shown) [Compound I-31, 4-(((4-(1-(2-fluorophenyl)-1H-pyrazol-4-yl)pyrimidin-5-yl)oxy)methyl)cyclo-hexan-1-ol] | > 1000 nM | 200 to 1000 nM |
| Fc1ccccc1-n1cc(-c2ncncc2NCC2CCNCC2)cn1 [Compound I-24, 4-(1-(2-fluorophenyl)-1H-pyrazol-4-yl)-N-(piperidin-4-ylmethyl)pyrimidin-5-amine] | > 1000 nM | > 1000 nM |
| N[C@@H]1CC[C@H](COc2cncnc2-c2cnn(-c3ccccc3F)c2)C1 [Compound I-6, (1R,3S)-3-(((4-(1-(2-fluorophenyl)-1H-pyrazol-4-yl)pyrimidin-5-yl)oxy)methyl)cyclo-pentan-1-amine] | 200 to 1000 nM | 200 to 1000 nM |
| CC(C)N1CCC(COc2cncnc2-c2cnn(-c3ccccc3F)c2)CC1 [Compound I-16, 4-(1-(2-fluorophenyl)-1H-pyrazol-4-yl)-5-((1-isopropylpiperidin-4-yl)methoxy)pyrim-idine] | > 1000 nM | > 1000 nM |
| N[C@H]1CC[C@@H](COc2cncnc2-c2cnn(-c3c(F)cccc3F)c2)CC1 [Compound I-1, (1s,4s)-4-(((4-(1-(2,6-difluorophenyl)-1H-pyrazol-4-yl)pyrimidin-5-yl)oxy)methyl)cyclo-hexan-1-amine] | < 200 nM | < 200 nM |
| N[C@H]1CC[C@@H](COc2cncnc2-c2cnn(-c3ccc(N4CCOCC4)cc3)c2)CC1 [Compound I-33, (1s,4s)-4-(((4-(1-(4-morpholinophenyl)-1H-pyrazol-4-yl)pyrimidin-5-yl)oxy)methyl)cyclo-hexan-1-amine] | < 200 nM | < 200 nM |
| Cc1cccc(F)c1-n1cc(-c2ncncc2OC[C@H]2CC[C@@H](N)CC2)cn1 [Compound I-14, (1s,4s)-4-(((4-(1-(2-fluoro-6-methylphenyl)-1H-pyrazol-4-yl)pyrimidin-5-yl)oxy)methyl)cyclo-hexan-1-amine] | > 1000 nM | 200 to 1000 nM |
| N[C@H]1CC[C@@H](COc2cncnc2-c2cnn(-c3ccccc3OC(F)(F)F)c2)CC1 [Compound I-3, (1s,4s)-4-(((4-(1-(2-(trifluoromethoxy)phen-yl)-1H-pyrazol-4-yl)pyrimidin-5-yl)oxy)methyl)cyclo-hexan-1-amine] | 200 to 1000 nM | 200 to 1000 nM |
| N[C@H]1CC[C@@H](COc2cncnc2-c2cnn(-c3cc(F)cc(F)c3)c2)CC1 [Compound I-20, (1s,4s)-4-(((4-(1-(3,5-difluorophenyl)-1H-pyrazol-4-yl)pyrimidin-5-yl)oxy)methyl)cyclo-hexan-1-amine] | > 1000 nM | 200 to 1000 nM |
| CCS(=O)(=O)c1ccc(-n2cc(-c3ncncc3OC[C@H]3CC[C@@H](N)CC3)cn2)c(F)c1 [Compound I-35, (1s,4s)-4-(((4-(1-(4-(ethylsulfonyl)-2-fluorophenyl)-1H-pyrazol-4-yl)pyrimidin-5-yl)oxy)methyl)cyclo-hexan-1-amine] | 200 to 1000 nM | 200 to 1000 nM |
